In PubChem BioAssay (NCI):
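How tested: cells in 96-well plates exposed to compound for 48 hours at five concentrations. At the GI50, growth is halved. TGI: total growth inhibition.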

Assays:
Assay in all cases: NCI-60 cell line screen, 48 h
MCF7 breast = test system: MCF7 breast
OVCAR-8 ovarian = test system: OVCAR-8 ovarian
MDA-MB-231 breast = test system: MDA-MB-231 breast
M14 melanoma = test system: M14 melanoma
SNB-19 CNS = test system: SNB-19 CNS
TK-10 renal = test system: TK-10 renal
SF-295 CNS = test system: SF-295 CNS
HS 578T breast = test system: HS 578T breast
HCT-15 colon = test system: HCT-15 colon
MALME-3M melanoma = test system: MALME-3M melanoma
OVCAR-5 ovarian = test system: OVCAR-5 ovarian
SR leukemia = test system: SR leukemia
KM12 colon = test system: KM12 colon
786-0 renal = test system: 786-0 renal
U251 CNS = test system: U251 CNS
LOX IMVI melanoma = test system: LOX IMVI melanoma
COLO 205 colon = test system: COLO 205 colon
SK-MEL-28 melanoma = test system: SK-MEL-28 melanoma
T-47D breast = test system: T-47D breast
OVCAR-4 ovarian = test system: OVCAR-4 ovarian
IGROV1 ovarian = test system: IGROV1 ovarian
CAKI-1 renal = test system: CAKI-1 renal
SK-MEL-5 melanoma = test system: SK-MEL-5 melanoma
CCRF-CEM leukemia = test system: CCRF-CEM leukemia
SK-MEL-2 melanoma = test system: SK-MEL-2 melanoma
NCI-H226 lung = test system: NCI-H226 lung
NCI-H522 lung = test system: NCI-H522 lung
RXF 393 renal = test system: RXF 393 renal
SF-268 CNS = test system: SF-268 CNS
BT-549 breast = test system: BT-549 breast
DU-145 prostate = test system: DU-145 prostate
SK-OV-3 ovarian = test system: SK-OV-3 ovarian
UACC-62 melanoma = test system: UACC-62 melanoma
MOLT-4 leukemia = test system: MOLT-4 leukemia
UACC-257 melanoma = test system: UACC-257 melanoma
UO-31 renal = test system: UO-31 renal
ACHN renal = test system: ACHN renal
EKVX NSCLC = test system: EKVX NSCLC
HCC-2998 colon = test system: HCC-2998 colon
HOP-92 NSCLC = test system: HOP-92 NSCLC
HL-60(TB) leukemia = test system: HL-60(TB) leukemia
A549 NSCLC = test system: A549 NSCLC
SF-539 CNS = test system: SF-539 CNS
NCI-H460 lung = test system: NCI-H460 lung
RPMI-8226 leukemia = test system: RPMI-8226 leukemia
SW-620 colon = test system: SW-620 colon
HT29 colon = test system: HT29 colon
SN12C renal = test system: SN12C renal
HCT-116 colon = test system: HCT-116 colon
HOP-62 NSCLC = test system: HOP-62 NSCLC
NCI/ADR-RES ovarian = test system: NCI/ADR-RES ovarian
SNB-75 CNS = test system: SNB-75 CNS
MDA-MB-435 = test system: MDA-MB-435
A498 renal = test system: A498 renal
PC-3 prostate = test system: PC-3 prostate
K-562 leukemia = test system: K-562 leukemia
OVCAR-3 ovarian = test system: OVCAR-3 ovarian

For `C#C[C@]1(O)CC[C@H]2[C@@H]3CC=C4c5sc(-c6ccc(F)cn6)nc5CC[C@]4(C)[C@H]3CC[C@@]21C`, the GI50 (MCF7 breast) was 1.5 µM, the TGI (MCF7 breast) was 3.38 µM and the GI50 (OVCAR-8 ovarian) was 3.16 µM. For the same compound, the TGI (OVCAR-8 ovarian) was 14.3 µM, the GI50 (MDA-MB-231 breast) was 2.4 µM and the TGI (MDA-MB-231 breast) was 7.14 µM. It also gave a GI50 (M14 melanoma) of 2.77 µM, a TGI (M14 melanoma) of 11.7 µM and a GI50 (SNB-19 CNS) of 2.72 µM. The TGI (SNB-19 CNS) was 12.7 µM, the GI50 (TK-10 renal) was 5.31 µM and the TGI (TK-10 renal) was 17.3 µM. The GI50 (SF-295 CNS) was 1.24 µM, the TGI (SF-295 CNS) was 2.96 µM and the GI50 (HS 578T breast) was 1.45 µM. The TGI (HS 578T breast) was 5.26 µM, the GI50 (HCT-15 colon) was 1.89 µM and the TGI (HCT-15 colon) was 5.11 µM. For the same compound, the GI50 (MALME-3M melanoma) was 3.29 µM, the TGI (MALME-3M melanoma) was 11.7 µM and the GI50 (OVCAR-5 ovarian) was 4.01 µM. The TGI (OVCAR-5 ovarian) was 14.8 µM, the GI50 (SR leukemia) was 2.21 µM and the TGI (SR leukemia) was 8.39 µM. It also gave a GI50 (KM12 colon) of 3.26 µM, a TGI (KM12 colon) of 20.8 µM and a GI50 (786-0 renal) of 1.36 µM. The TGI (786-0 renal) was 3.33 µM, the GI50 (U251 CNS) was 1.68 µM and the TGI (U251 CNS) was 7.05 µM. For the same compound, the GI50 (LOX IMVI melanoma) was 1.82 µM, the TGI (LOX IMVI melanoma) was 3.35 µM and the GI50 (COLO 205 colon) was 2.62 µM. For the same compound, the TGI (COLO 205 colon) was 11.1 µM, the GI50 (SK-MEL-28 melanoma) was 1.64 µM and the TGI (SK-MEL-28 melanoma) was 3.88 µM. The GI50 (T-47D breast) was 3.43 µM, the TGI (T-47D breast) was 16.1 µM and the GI50 (OVCAR-4 ovarian) was 4.41 µM. It also gave a TGI (OVCAR-4 ovarian) of 18.5 µM, a GI50 (IGROV1 ovarian) of 4.96 µM and a TGI (IGROV1 ovarian) of 20.8 µM. For the same compound, the GI50 (CAKI-1 renal) was 2.12 µM, the TGI (CAKI-1 renal) was 6.27 µM and the GI50 (SK-MEL-5 melanoma) was 2.62 µM. The TGI (SK-MEL-5 melanoma) was 7.23 µM, the GI50 (CCRF-CEM leukemia) was 2.71 µM and the TGI (CCRF-CEM leukemia) was 33.5 µM. It also gave a GI50 (SK-MEL-2 melanoma) of 2.33 µM, a TGI (SK-MEL-2 melanoma) of 6.58 µM and a GI50 (NCI-H226 lung) of 2.93 µM. It also gave a TGI (NCI-H226 lung) of 13.1 µM, a GI50 (NCI-H522 lung) of 2.06 µM and a TGI (NCI-H522 lung) of 5.78 µM. It also gave a GI50 (RXF 393 renal) of 0.309 µM, a TGI (RXF 393 renal) of 0.956 µM and a GI50 (SF-268 CNS) of 3.46 µM. The TGI (SF-268 CNS) was 18.4 µM, the GI50 (BT-549 breast) was 1.77 µM and the TGI (BT-549 breast) was 5.02 µM. The GI50 (DU-145 prostate) was 4.62 µM, the TGI (DU-145 prostate) was 18.9 µM and the GI50 (SK-OV-3 ovarian) was 2.29 µM. It also gave a TGI (SK-OV-3 ovarian) of 5.64 µM, a GI50 (UACC-62 melanoma) of 2.65 µM and a TGI (UACC-62 melanoma) of 8.53 µM. The GI50 (MOLT-4 leukemia) was 2.01 µM, the TGI (MOLT-4 leukemia) was 8.06 µM and the GI50 (UACC-257 melanoma) was 2.25 µM. It also gave a TGI (UACC-257 melanoma) of 6.73 µM, a GI50 (UO-31 renal) of 2.32 µM and a TGI (UO-31 renal) of 5.62 µM. It also gave a GI50 (ACHN renal) of 3.43 µM, a TGI (ACHN renal) of 14 µM and a GI50 (EKVX NSCLC) of 2.89 µM. For the same compound, the TGI (EKVX NSCLC) was 12.9 µM, the GI50 (HCC-2998 colon) was 5.16 µM and the TGI (HCC-2998 colon) was 17.8 µM. It also gave a GI50 (HOP-92 NSCLC) of 2.02 µM, a TGI (HOP-92 NSCLC) of 6.83 µM and a GI50 (HL-60(TB) leukemia) of 2.77 µM. The TGI (HL-60(TB) leukemia) was 10.9 µM, the GI50 (A549 NSCLC) was 3.44 µM and the TGI (A549 NSCLC) was 15.1 µM. The GI50 (SF-539 CNS) was 1.23 µM, the TGI (SF-539 CNS) was 2.88 µM and the GI50 (NCI-H460 lung) was 3.03 µM. The TGI (NCI-H460 lung) was 12.5 µM, the GI50 (RPMI-8226 leukemia) was 0.365 µM and the TGI (RPMI-8226 leukemia) was 1.72 µM. For the same compound, the GI50 (SW-620 colon) was 2.62 µM, the TGI (SW-620 colon) was 8.01 µM and the GI50 (HT29 colon) was 2.02 µM. For the same compound, the TGI (HT29 colon) was 4.6 µM, the GI50 (SN12C renal) was 4.54 µM and the TGI (SN12C renal) was 17.5 µM. The GI50 (HCT-116 colon) was 1.8 µM, the TGI (HCT-116 colon) was 4.3 µM and the GI50 (HOP-62 NSCLC) was 2.28 µM. It also gave a TGI (HOP-62 NSCLC) of 7.25 µM, a GI50 (NCI/ADR-RES ovarian) of 4.12 µM and a TGI (NCI/ADR-RES ovarian) of 23.6 µM. For the same compound, the GI50 (SNB-75 CNS) was 2.45 µM, the TGI (SNB-75 CNS) was 15 µM and the GI50 (MDA-MB-435) was 2.28 µM. The TGI (MDA-MB-435) was 6.84 µM, the GI50 (A498 renal) was 2.05 µM and the TGI (A498 renal) was 4.06 µM. It also gave a GI50 (PC-3 prostate) of 1.73 µM, a TGI (PC-3 prostate) of 7.64 µM and a GI50 (K-562 leukemia) of 2.49 µM. For the same compound, the TGI (K-562 leukemia) was over 100 µM, the GI50 (OVCAR-3 ovarian) was 3.86 µM and the TGI (OVCAR-3 ovarian) was 72.4 µM.
